The source of these data is ChEMBL document CHEMBL3045486, “Potent, Selective Adenosine A1 Agonists as Potential Analgesics” (Med Chem Res, 2004).

One experiment deals with T1, Adenosine receptor A3 (Homo sapiens, UniProt P0DMS8).
T1 sequence (P0DMS8 whole entry): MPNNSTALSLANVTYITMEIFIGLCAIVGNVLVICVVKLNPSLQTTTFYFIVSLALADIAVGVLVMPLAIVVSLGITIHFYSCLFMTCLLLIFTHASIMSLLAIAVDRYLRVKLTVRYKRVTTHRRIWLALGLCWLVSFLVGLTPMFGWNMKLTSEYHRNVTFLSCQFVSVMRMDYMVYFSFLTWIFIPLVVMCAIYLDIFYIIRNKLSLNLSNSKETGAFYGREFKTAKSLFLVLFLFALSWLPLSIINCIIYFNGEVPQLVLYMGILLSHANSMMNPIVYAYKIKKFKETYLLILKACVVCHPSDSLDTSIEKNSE
The experiment is described as follows: Agonist activity at Homo sapiens (human) adenosine A3 receptor expressed in CHO cells. Type of experiment: cell-based.

Experiment [1] has as its target T2, Adenosine receptor A2a (Homo sapiens, UniProt P29274). The experiment is described as follows: Agonist activity at Homo sapiens (human) adenosine A2a receptor expressed in CHO cells relative to NECA. Type of experiment: cell-based.
For experiment [2], the target named is T2, Adenosine receptor A2a. The experiment is described as follows: Agonist activity at Homo sapiens (human) adenosine A2a receptor expressed in CHO cells. Type of experiment: functional, cell-based.
In the next experiment the target is T3, Adenosine receptor A1 (Homo sapiens, UniProt P30542).
T3 sequence (P30542 whole entry): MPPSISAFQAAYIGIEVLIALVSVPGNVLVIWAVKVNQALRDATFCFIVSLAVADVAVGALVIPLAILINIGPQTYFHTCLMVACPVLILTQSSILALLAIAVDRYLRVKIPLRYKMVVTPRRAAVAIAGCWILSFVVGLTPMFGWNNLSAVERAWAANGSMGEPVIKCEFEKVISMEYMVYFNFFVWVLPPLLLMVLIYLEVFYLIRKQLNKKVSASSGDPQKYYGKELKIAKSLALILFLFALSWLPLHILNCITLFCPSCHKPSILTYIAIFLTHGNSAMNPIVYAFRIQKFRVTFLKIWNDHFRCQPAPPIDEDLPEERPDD
Kind of experiment: Agonist activity at Homo sapiens (human) adenosine A1 receptor expressed in CHO cells. Type of experiment: cell-based.

Experiment [3] addresses T4, Adenosine receptor A2b (Homo sapiens) (UniProt P29275).
T4 sequence (whole entry): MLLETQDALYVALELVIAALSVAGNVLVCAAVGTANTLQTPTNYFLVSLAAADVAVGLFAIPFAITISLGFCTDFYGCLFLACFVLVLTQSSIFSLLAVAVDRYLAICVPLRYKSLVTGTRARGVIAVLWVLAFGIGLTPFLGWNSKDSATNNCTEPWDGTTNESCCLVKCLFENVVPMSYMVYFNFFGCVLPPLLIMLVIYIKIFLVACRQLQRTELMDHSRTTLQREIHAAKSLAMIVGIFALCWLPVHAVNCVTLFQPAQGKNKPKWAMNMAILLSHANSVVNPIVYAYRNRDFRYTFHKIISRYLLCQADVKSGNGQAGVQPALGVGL
Kind of experiment: Agonist activity at Homo sapiens (human) adenosine A2b receptor expressed in CHO cells relative to NECA. Type of experiment: cell-based.

Experiment [4] addresses T5, Adenosine receptor A3 (Homo sapiens) (UniProt P0DMS8).
T5 sequence (whole entry): T1 sequence (P0DMS8 whole entry)
The experiment is described as follows: Agonist activity at Homo sapiens (human) adenosine A3 receptor expressed in CHO cells relative to NECA. Type of experiment: cell-based.

Another experiment addresses T6, Adenosine receptor A2b (Homo sapiens, UniProt P29275).
T6 sequence (P29275 whole entry): T4 sequence (whole entry)
Kind of experiment: Agonist activity at Homo sapiens (human) adenosine A2b receptor expressed in CHO cells. Type of experiment: cell-based.

The target in experiment [5] is T7, Adenosine receptor A1 (Homo sapiens) (UniProt P30542).
T7 sequence (whole entry): T3 sequence (P30542 whole entry)
Kind of experiment: Agonist activity at Homo sapiens (human) adenosine A1 receptor expressed in CHO cells relative to NECA. Type of experiment: cell-based.

The target of experiment [6] is T7, Adenosine receptor A1 (Homo sapiens). The experiment is described as follows: Intrinsic efficacy at Homo sapiens (human) adenosine A1 receptor expressed in CHO cells assessed as increase in intracellular calcium level by FLIPR assay relative to NECA. Type of experiment: functional, cell-based. Background: Calcium flux is commonly read through the fluorescence of an indicator in the cells.

For orientation: Ki means a measure of affinity in units of concentration, obtained from inhibition or displacement.

T2 sequence (P29274 whole entry): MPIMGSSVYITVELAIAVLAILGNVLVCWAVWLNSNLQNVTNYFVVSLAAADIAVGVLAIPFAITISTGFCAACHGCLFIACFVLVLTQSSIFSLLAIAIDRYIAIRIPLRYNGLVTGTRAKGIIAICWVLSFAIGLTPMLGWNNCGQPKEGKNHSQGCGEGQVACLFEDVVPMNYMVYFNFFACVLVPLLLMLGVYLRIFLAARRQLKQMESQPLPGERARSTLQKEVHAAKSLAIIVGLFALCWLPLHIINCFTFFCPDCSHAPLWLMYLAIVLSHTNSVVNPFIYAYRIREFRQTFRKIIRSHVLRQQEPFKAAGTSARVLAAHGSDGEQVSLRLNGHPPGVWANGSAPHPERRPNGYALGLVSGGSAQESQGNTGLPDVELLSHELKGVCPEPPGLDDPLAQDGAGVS

Turning to `OC[C@H]1O[C@@H](n2cnc3c(N[C@H]4CCC[C@@H]4O)ncnc32)[C@H](O)[C@@H]1O` [GR-79236], the Ki is 2.51 µM at Adenosine receptor A3, 25.1 µM at Adenosine receptor A2a [2], 0.0158 µM at Adenosine receptor A1 and 31.6 µM at Adenosine receptor A2b. Further, the Ratio on Adenosine receptor A2a [1] is 445; in experiment [3], 195; in experiment [4], over 190; in [5], 1.9. Further, in [6], the Efficacy worked out at 106%.

Regarding `O[C@@H]1[C@H](O)[C@@H](CF)O[C@H]1n1cnc2c(NC3CCOCC3)ncnc21`, the Ki is 2.51 µM on Adenosine receptor A3, 5.01 µM at Adenosine receptor A2a [2], 0.0251 µM at Adenosine receptor A1 and over 100 µM at Adenosine receptor A2b. For the same compound, the Ratio is 212 on Adenosine receptor A2a [1], over 273 in experiment [3], over 251 in [4] and 2.4 in experiment [5]. Besides, the Efficacy in experiment [6] worked out at 84%.

As to `COC[C@H]1O[C@@H](n2cnc3c(Nc4ccc(O)c(F)c4)ncnc32)[C@H](O)[C@@H]1O` [GR-190178], the Ki on Adenosine receptor A3 was 3.16 µM; on Adenosine receptor A2a [2], over 100 µM; on Adenosine receptor A1, 0.251 µM. The Ratio is 725 at Adenosine receptor A2a [1], over 348 in experiment [3], over 364 in experiment [4] and 12 in experiment [5]. The Efficacy in experiment [6] worked out at 12%.
